# Laboratory results published in ChEMBL document CHEMBL4715805, “Structure-Activity Relationship for Sulfonamide Inhibition of Helicobacter pylori α-Carbonic Anhydrase” (J Med Chem, 2016).
# Test: Inhibition of Helicobacter pylori alpha-carbonic anhydrase expressed in Escherichia coli assessed as inhibition constant preincubated for 15 mins prior to testing by phenol red-based stopped-flow CO2 hydration assay
smiles,measurement,value
Cn1nc(S(N)(=O)=O)s/c1=N/S(=O)(=O)c1ccc(C(C)(C)C)cc1,Ki,8.2 nM
